Reference: patent publication EP4050002A1, “ANTI-PROLIFERATIVE AGENTS” (First Health Pharmaceuticals B.V., priority 2021, dated 2022)

How the values were obtained:
A549 Red-FLuc = assay: Cytotoxicity, cell count method; format: cell-based; conditions: Homo sapiens, 72 hours of incubation
Procedure: The anti-tumor activity of the compounds of the present invention was evaluated as the effect on the proliferation and survival of tumor cells by counting the number of living cells in presence or absence of the compounds ("cell count method"), and as the effect on the viability and metabolic activity of the cells, by using particular substrates that are converted by cellular enzymes into coloured or luminescent products, proportionally with metabolic activity and state of the cell, such as the MTS tetrazolium compound ("MTS method") or luciferin ("ATP-based method") respectively.
Cells were seeded at 3 to 5 x 10^4 cells/well density depending on cell lines and maintained at 37°C in 5% CO2. After 24 hours cells were treated with ascending concentrations of the investigational compounds and the reference (5-fluoro-Uracyl) in a range from 0 to 100 µM. Compounds were dissolved in DMSO which final concentration in each well was 0.5% v:v. After 72 h of incubation with compounds, the cells were detached with trypsin and re-suspended in 1 ml of complete medium; the cell number was evaluated using a Z2 Coulter Counter ("cell count method") (Attallah and Johnson, A simple highly sensitive methods for the determination of cell viability using an electronic particle analyzer, Coulter counter J. Immunol. Methods. 1981, 41, 155; Leonardi et al., Activated kinase screening identifies the IKBKE oncogene as a positive regulator of autophagy. Autophagy, 2019, 15, 312). Alternatively, after the 72 hours of incubation with compounds, the MTS solution (CellTiter 96® AQueous One Solution Cell Proliferation Assay) is added to each well and absorbance at 490 nm wavelength is read after 2 hours of incubation ("MTS method"). Results in Tables 8-13, 17, 18 were obtained with the cell count method. Results in Tables 14-15 were obtained with the MTS method. Results in Table 16 were obtained with ATP-based method.

DDX3X = DDX3X (Homo sapiens, UniProt O00571); assay: Helicase assay (unwinding of 18/36mer dsRNA); format: biochemical; design: host or cells: 293T cells (transient transfection, anti-HA immunoprecipitation, protein kept on beads); conditions: 50, 250 and 500 µM, in presence of ATP
Procedure: The DDX3X protein was obtained by immunoprecipitation from 293T cells (3x10^5) were seeded in 6-well plates and, after 24h, transfected with 1 µg of HA-DDX3 (Addgene plasmid # 44975) by using the Lipofectamine reagent (Thermo Fischer Scientific). After 36 h, cells were lysed in NP-40 Lysis Buffer (20 mM HEPES pH=7.5, 10 mM EGTA pH=8, 40 mM β-glycerolphosphate, 1% NP40, 2.5 mM MgCl2, 2 mM Orthovanadate, 2 mM NaF, 1 mM DTT, and 1X protease inhibitors mixture) and 2 mg of proteins were immunoprecipitated with anti-HA antibodies (Covance) in NP40 lysis buffer. Immunoprecipitated samples were washed twice with lysis buffer and one time in helicase reaction buffer (50 mM Tris HCl pH=8, 1 mM DTT, 5% glycerol, 10 mM MgCl2). Beads were then resuspended in 100 µl in helicase reaction buffer. […]
Ultimately, reactions were performed in a final volume 100 µl of helicase reaction buffer plus ATP 4 mM, 30 µl of beads used to immunoprecipitate HA-DDX3X, 20 nM of 18/36mer dsRNA and 100 nM of competitor at 37°C for 1 hour and stopped by adding 10 µl of a stopping solution (EDTA 60 mM pH=8, 40% glycerol, 0.6% SDS, 1% Orange G). […] Quantification of the ssRNA was performed by the ImageJ software (version 1.53, NIH). […]

DDX3X, sequence (O00571 whole entry): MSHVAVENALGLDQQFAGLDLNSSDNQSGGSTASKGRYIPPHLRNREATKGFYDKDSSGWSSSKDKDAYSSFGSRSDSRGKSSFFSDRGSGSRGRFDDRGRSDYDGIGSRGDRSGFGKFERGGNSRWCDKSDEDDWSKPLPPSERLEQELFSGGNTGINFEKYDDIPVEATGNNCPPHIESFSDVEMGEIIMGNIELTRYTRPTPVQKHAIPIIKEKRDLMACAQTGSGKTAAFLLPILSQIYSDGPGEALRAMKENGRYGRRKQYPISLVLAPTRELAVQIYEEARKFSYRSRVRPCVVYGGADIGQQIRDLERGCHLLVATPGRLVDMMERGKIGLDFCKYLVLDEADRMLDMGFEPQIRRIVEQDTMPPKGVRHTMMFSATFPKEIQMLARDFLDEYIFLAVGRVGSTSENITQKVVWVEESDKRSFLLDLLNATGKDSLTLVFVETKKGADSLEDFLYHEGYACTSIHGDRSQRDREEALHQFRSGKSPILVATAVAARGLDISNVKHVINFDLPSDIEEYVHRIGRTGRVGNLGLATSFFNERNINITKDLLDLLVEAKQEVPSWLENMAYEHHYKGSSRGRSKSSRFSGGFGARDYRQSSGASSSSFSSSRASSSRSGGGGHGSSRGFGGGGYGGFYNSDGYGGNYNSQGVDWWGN

SMILES: CCCCc1cn(-c2ccc(-c3nnc(-c4cccc(C(=O)O)c4)o3)cc2)nn1 [Compound 16, 3-(5-(4-(4-butyl-1H-1,2,3-triazol-1-yl)phenyl)-1,3,4-oxadiazol-2-yl)benzoic acid]
- IC50 (A549 Red-FLuc): 18.1 µM
- inhibitory effect on DDX3X helicase activity (DDX3X): inhibitory effect on DDX3X helicase activity
